These results are taken from patent US20260324639A1, “MICROBIOCIDAL PYRAZOLE DERIVATIVES” (SYNGENTA CROP PROTECTION AG, priority 2022, published 2026).

Where only a bound is given, the exact number is not on record here.

The subject of experiment [1] is Mycosphaerella graminicola. Put plainly: Mycosphaerella graminicola (Septoria tritici)/liquid culture (Septoria blotch). The experiment is classed as cell-based. Conditions: Zymoseptoria tritici, liquid culture, PDB, 24° C., growth inhibition photometric 4-5 days after application, read-out: control of Mycosphaerella graminicola compared to untreated control. On the procedure:
(§1) Conidia of the fungus from cryogenic storage are directly mixed into nutrient broth (PDB potato dextrose broth). After placing a (DMSO) solution of test compound into a microtiter plate (96-well format), the nutrient broth containing the fungal spores is added. The test plates are incubated at 24° C. and the inhibition of growth is determined photometrically 4-5 days after application.

For experiment [2], the system named is Monographella nivalis. Nature of the experiment: Monographella nivalis (Microdochium nivale)/liquid culture (foot rot cereals). The format is cell-based. Conditions: liquid culture, PDB, 24° C., growth inhibition photometric 4-5 days after application, read-out: control of Monographella nivalis compared to untreated control. As for the experimental part:
as §1

Experiment [3] relates to Glomerella lagenarium. Put plainly: Glomerella lagenarium (Colletotrichum lagenarium)/liquid culture (anthracnose). The experiment is classed as cell-based. Conditions: Colletotrichum orbiculare, liquid culture, PDB, 24° C., growth inhibition photometric 3-4 days after application, read-out: control of Glomerella lagenarium compared to untreated control. On the procedure:
Conidia of the fungus from cryogenic storage are directly mixed into nutrient broth (PDB potato dextrose broth). After placing a (DMSO) solution of test compound into a microtiter plate (96-well format), the nutrient broth containing the fungal spores is added. The test plates are incubated at 24° C. and the inhibition of growth is measured photometrically 3-4 days after application.

Experiment [4] has as its system Phaeosphaeria nodorum. Nature of the experiment: Phaeosphaeria nodorum (Septoria nodorum)/wheat/leaf disc preventative (glume blotch). The experiment is classed as in vivo. Conditions: 200 ppm, wheat leaf segments cv. Kanzler, inoculated 2 days after application, assessed 5-7 days after application. As for the experimental part:
Wheat leaf segments cv. Kanzler are placed on agar in a multiwell plate (24-well format) and sprayed with the formulated test compound diluted in water. The leaf disks are inoculated with a spore suspension of the fungus 2 days after application. The inoculated test leaf disks are incubated at 20° C. and 75% rh under a light regime of 12 h light/12 h darkness in a climate cabinet and the activity of a compound is assessed as percent disease control compared to untreated when an appropriate level of disease damage appears in untreated check leaf disks (5-7 days after application).

The subject of experiment [5] is Alternaria solani. Nature of the experiment: Alternaria solani/tomato/leaf disc (early blight). Conditions: 200 ppm; tomato leaf disks cv. Baby; inoculated 2 days after application; assessed 5-7 days after application. The experiment is classed as in vivo. On the procedure:
Tomato leaf disks cv. Baby are placed on agar in multiwell plates (24-well format) and sprayed with the formulated test compound diluted in water. The leaf disks are inoculated with a spore suspension of the fungus 2 days after application. The inoculated leaf disks are incubated at 23° C./21° C. (day/night) and 80% rh under a light regime of 12/12 h (light/dark) in a climate cabinet and the activity of a compound is assessed as percent disease control compared to untreated when an appropriate level of disease damage appears on untreated check disk leaf disks (5-7 days after application).

The test system of experiment [6] is Botryotinia fuckeliana. Put plainly: Botryotinia fuckeliana (Botrytis cinerea)/liquid culture (gray mould). The format is cell-based. The note with it: liquid culture, Vogels broth, 24° C., growth inhibition photometric 3-4 days after application, read-out: control of Botryotinia fuckeliana compared to untreated control. On the procedure: Conidia of the fungus from cryogenic storage are directly mixed into nutrient broth (Vogels broth). After placing a (DMSO) solution of test compound into a microtiter plate (96-well format), the nutrient broth containing the fungal spores is added. The test plates are incubated at 24° C. and the inhibition of growth is determined photometrically 3-4 days after application.

Experiment [7] has as its system Pyrenophora teres. Put plainly: Pyrenophora teres/barley/leaf disc preventative (net blotch). The note with it: 200 ppm, barley leaf segments cv. Hasso, inoculated 2 days after application, assessed 5-7 days after application. The experiment is classed as in vivo. As for the experimental part: Barley leaf segments cv. Hasso are placed on agar in a multiwell plate (24-well format) and sprayed with the formulated test compound diluted in water. The leaf segments are inoculated with a spore suspension of the fungus 2 days after application. The inoculated leaf segments are incubated at 20° C. and 65% rh under a light regime of 12 h light/12 h darkness in a climate cabinet and the activity of a compound is assessed as disease control compared to untreated when an appropriate level of disease damage appears in untreated check leaf segments (5-7 days after application).

The test system of experiment [8] is Mycosphaerella arachidis. Put plainly: Mycosphaerella arachidis (Cercospora arachidicola)/liquid culture (early leaf spot). The experiment is classed as cell-based. The note with it: liquid culture, PDB, 24° C., growth inhibition photometric 4-5 days after application, read-out: control of Mycosphaerella arachidis compared to untreated control. On the procedure:
as §1

In the case of `Cn1cc(C2CN(C(=O)c3cnn(-c4ccc(F)cc4)n3)Cc3ccccc32)cn1` (stereo not shown) [Compound P-18, [2-(4-fluorophenyl)triazol-4-yl]-[4-(1-methylpyrazol-4-yl)-3,4-dihydro-1H-isoquinolin-2-yl]methanone], the inhibition of growth at 20 ppm in experiment [1] and in experiment [2] was at least 80% in each case.
Regarding `C[C@H]1c2ccccc2[C@@H](c2cnn(C)c2Cl)CN1C(=O)c1cnn(-c2ccc(F)cc2F)n1` [Compound P-45, [(1S,4S)-4-(5-chloro-1-methyl-pyrazol-4-yl)-1-methyl-3,4-dihydro-1H-isoquinolin-2-yl]-[2-(2,4-difluorophenyl)triazol-4-yl]methanone], in experiment [1], the inhibition of growth at 20 ppm is at least 80%.
Regarding `Cn1cc(C2CN(C(=O)c3cn(-c4ccccc4)nn3)Cc3ccccc32)cn1` (stereo not shown) [Compound P-11, [4-(1-methylpyrazol-4-yl)-3,4-dihydro-1H-isoquinolin-2-yl]-(1-phenyltriazol-4-yl)methanone], the inhibition of growth at 20 ppm in experiment [3] and in experiment [1] was at least 80% throughout.
With `C[C@@H]1c2ccccc2[C@H](c2cnn(C)c2Cl)CN1C(=O)c1nnn(-c2ccc(F)cc2F)n1` [Compound P-50, [(1R,4R)-4-(5-chloro-1-methyl-pyrazol-4-yl)-1-methyl-3,4-dihydro-1H-isoquinolin-2-yl]-[2-(2,4-difluorophenyl)tetrazol-5-yl]methanone], the inhibition of growth at 20 ppm in experiment [1] is at least 80%.
Turning to `Cn1cc(C2CN(C(=O)c3nnn(-c4ccccc4)n3)Cc3ccccc32)cn1` (stereo not shown) [Compound P-14, [4-(1-methylpyrazol-4-yl)-3,4-dihydro-1H-isoquinolin-2-yl]-(2-phenyltetrazol-5-yl)methanone], the inhibition of growth at 20 ppm in experiment [3], in experiment [6], in experiment [1], in experiment [8] and in experiment [2] was at least 80% throughout. Also, the “control of Phaeosphaeria nodorum compared to untreated control” value in experiment [4] is recorded as “at least 80%”. Also, the “control of Alternaria solani compared to untreated control” value in experiment [5] is reported as “at least 80%”. Further, the “control of Pyrenophora teres compared to untreated control” value in experiment [7] is “at least 80%”.
As for `COc1ccc2c(c1)C(c1cnn(C)c1)CN(C(=O)c1nnn(-c3ccc(F)cc3F)n1)C2C` (racemic) [Compound P-34, [2-(2,4-difluorophenyl)tetrazol-5-yl]-[6-methoxy-1-methyl-4-(1-methylpyrazol-4-yl)-3,4-dihydro-1H-isoquinolin-2-yl]methanone], the inhibition of growth at 20 ppm in experiment [1], in experiment [8] and in experiment [2] was at least 80% throughout.
Consider `Cn1cc(C2CN(C(=O)c3cn(-c4ccc(F)cc4F)nn3)Cc3ccccc32)cn1` (stereo not shown) [Compound P-8, [1-(2,4-difluorophenyl)triazol-4-yl]-[4-(1-methylpyrazol-4-yl)-3,4-dihydro-1H-isoquinolin-2-yl]methanone], for which the “control of Pyrenophora teres compared to untreated control” value in experiment [7] is given as “at least 80%”.
Regarding `Cc1c([C@H]2CN(C(=O)c3cnn(-c4ccc(F)cc4F)n3)[C@@H](C)c3ccccc32)cnn1C` (racemic) [Compound P-40, [2-(2,4-difluorophenyl)triazol-4-yl]-[rac-(1S,4S)-4-(1,5-dimethylpyrazol-4-yl)-1-methyl-3,4-dihydro-1H-isoquinolin-2-yl]methanone], the inhibition of growth at 20 ppm in experiment [1] was at least 80%. Further, in experiment [7], the “control of Pyrenophora teres compared to untreated control” value is given as “at least 80%”.
For the molecule `Cc1c(C2CN(C(=O)c3cn(-c4ncc(F)cc4F)nn3)Cc3ccccc32)cnn1C` (stereo not shown) [Compound P-57, [1-(3,5-difluoro-2-pyridyl)triazol-4-yl]-[4-(1,5-dimethylpyrazol-4-yl)-3,4-dihydro-1H-isoquinolin-2-yl]methanone], the “control of Phaeosphaeria nodorum compared to untreated control” value in experiment [4] was “at least 80%”. For the same molecule, the “control of Alternaria solani compared to untreated control” value in experiment [5] is “at least 80%”. For the same molecule, the inhibition of growth at 20 ppm in experiment [1] is at least 80%. Also, the “control of Pyrenophora teres compared to untreated control” value in experiment [7] is given as “at least 80%”.
Take `Cc1nn(C)c(C)c1C1CN(C(=O)c2cn(-c3ccccc3)nn2)Cc2ccccc21` (stereo not shown) [Compound P-7, (1-phenyltriazol-4-yl)-[4-(1,3,5-trimethylpyrazol-4-yl)-3,4-dihydro-1H-isoquinolin-2-yl]methanone]: the inhibition of growth at 20 ppm in experiment [1] and in experiment [8] was at least 80% throughout.
Regarding `COc1ccc2c(c1)C(c1cnn(C)c1)CN(C(=O)c1nnn(-c3ccccc3)n1)C2C` (stereo not shown) [Compound P-35, [6-methoxy-1-methyl-4-(1-methylpyrazol-4-yl)-3,4-dihydro-1H-isoquinolin-2-yl]-(2-phenyltetrazol-5-yl)methanone], the inhibition of growth at 20 ppm in experiment [3], in experiment [6], in experiment [1], in experiment [8] and in experiment [2] was at least 80% in each case. For the same molecule, the “control of Pyrenophora teres compared to untreated control” value in experiment [7] is given as “at least 80%”.
Regarding `Cc1c(C2CN(C(=O)c3nnn(-c4ccc(F)cc4F)n3)Cc3ccccc32)cnn1C` (stereo not shown) [Compound P-31, [2-(2,4-difluorophenyl)tetrazol-5-yl]-[4-(1,5-dimethylpyrazol-4-yl)-3,4-dihydro-1H-isoquinolin-2-yl]methanone], the inhibition of growth at 20 ppm in experiment [3], in experiment [6], in experiment [1], in experiment [8] and in experiment [2] was at least 80% in each case. Also, the “control of Phaeosphaeria nodorum compared to untreated control” value in experiment [4] is recorded as “at least 80%”. Moreover, the “control of Alternaria solani compared to untreated control” value in experiment [5] was “at least 80%”. In addition, the “control of Pyrenophora teres compared to untreated control” value in experiment [7] is given as “at least 80%”.
For `COc1ccc2c(c1)[C@H](c1cnn(C)c1)CN(C(=O)c1nnn(-c3ccccc3)n1)[C@@H]2C` (single isomer, unassigned) [Compound P-36], the inhibition of growth at 20 ppm in experiment [1], in experiment [8] and in experiment [2] was at least 80% throughout.
On to `C[C@@H]1c2ccccc2[C@H](c2cnn(C)c2Cl)CN1C(=O)c1cn(-c2ccc(F)cc2F)nn1` [Compound P-47, [(1R,4R)-4-(5-chloro-1-methyl-pyrazol-4-yl)-1-methyl-3,4-dihydro-1H-isoquinolin-2-yl]-[1-(2,4-difluorophenyl)triazol-4-yl]methanone], for which the inhibition of growth at 20 ppm in experiment [1] and in experiment [8] was at least 80% each time.
As for `COc1ccc2c(c1)[C@@H](c1cnn(C)c1)CN(C(=O)c1nnn(-c3ccc(F)cc3F)n1)[C@H]2C` (single isomer, unassigned) [Compound P-38], the inhibition of growth at 20 ppm in experiment [1], in experiment [8] and in experiment [2] was at least 80% throughout.
Turning to `Cn1cc(C2(C)CN(C(=O)c3nnn(-c4ccc(F)cc4F)n3)Cc3ccccc32)cn1` (stereo not shown) [Compound P-32, [2-(2,4-difluorophenyl)tetrazol-5-yl]-[4-methyl-4-(1-methylpyrazol-4-yl)-1,3-dihydroisoquinolin-2-yl]methanone], in experiment [1], the inhibition of growth at 20 ppm is at least 80%.
As to `Cc1c([C@@H]2CN(C(=O)c3cn(-c4ncc(F)cc4F)nn3)[C@H](C)c3ccccc32)cnn1C` [Compound P-44, [1-(3,5-difluoro-2-pyridyl)triazol-4-yl]-[(1R,4R)-4-(1,5-dimethylpyrazol-4-yl)-1-methyl-3,4-dihydro-1H-isoquinolin-2-yl]methanone], the inhibition of growth at 20 ppm in experiment [3], in experiment [1] and in experiment [8] was at least 80% in each case.
